This is an account of results in ChEMBL document CHEMBL1156351, “A new isoquinoline alkaloid from the marine sponge Haliclona species” (J Nat Prod, 2001).

Each structure is given as a SMILES string. ≈ marks a conversion by molar mass, not a printed value. Calls of active or inactive are those of the source. The rule behind the calls is not given here.

Common to all, as to assay type: functional, cell-based
Assay [1] has as its system LOX. The experiment in a line: Cytotoxicity against human LOX cells at 50 ug/mL after 2 days by XTT assay. For orientation: Tetrazolium assays rely on reduction of a dye to a coloured formazan, in cell work by metabolically active cells.
Assay [2] concerns OVCAR-3. The experiment in a line: Cytotoxicity against human OVCAR-3 cells at 50 ug/mL after 2 days by XTT assay.
The nature of assay [3]: Cytotoxicity against human LOX cells after 2 days by XTT assay. The conditions noted are these: 48 h.
The subject of assay [4] is OVCAR-3. The experiment in a line: Cytotoxicity against human OVCAR-3 cells after 2 days by XTT assay. The conditions noted are these: OVCAR-3, 48 h.

Turning to `COc1cc2c(CO)nccc2cc1O`, the result in assay [1] and in assay [2] was inactive.
For orientation: IC50 means the concentration needed to halve the response being measured. Read a low IC50 as higher potency. As to `COC1=C(C)C(=O)c2cc(=O)n(C)c(C)c2C1=O` [MIMOSAMYCIN], the IC50 in assay [3] and in assay [4] was 10 µg/mL (≈ 40.4 µM) throughout.
